Source: patent publication US20140230091A1, “MODIFIED PLANTS WITH INCREASED OIL CONTENT” (BROOKHAVEN SCIENCE ASSOCIATES, LLC, priority 2011, published 2014)
Marks after values point to notes of the source that are not given here.

Legend:
B. napus cells = test: Quantification of free fatty acid, acyl-ACP and acyl-CoA pools in cells; type: cell-based, Brassica napus; conditions: after three hours of Tween-80 feeding
Description: Free fatty acids were extracted from tissue by quenching ˜300 mg of frozen cells in 2 mL boiling isopropanol for 5 min. Once cooled, 2 mL of 0.9% NaCl was added and lipids were extracted twice with 4 mL of hexane. Neutral lipids were separated by TLC and free fatty acids were scraped, made into FAMEs, and analyzed by GC-FID or GC-MS as described above. Acyl-CoAs were extracted from ˜15 mg FW of cells and quantified as previously described (Larson and Graham 2001, Plant J, 25, 115-125). Acyl-ACPs were extracted and quantified as previously described (Kopka, Ohlrogge and Jaworski 1995, Anal Biochem, 224, 51-60) with the following modifications: 1) Internal standards used were 11:0-CoA (Sigma) and 17:0—ACP made from Spinach ACP as previously described (Broadwater and Fox 1999, Protein Expr Purif, 15, 314-326). 2) Fully dissolving TCA precipitated proteins required three extractions with MOPS buffer rather than just one.
1986 Plant Physiol, 82, 771-779). Free fatty acids can be activated by esterification to CoA or ACP before being deposited in cellular lipids. Steady state pools acyl-ACP and acyl-CoA as well as free fatty acids (FFA) were measured in cells fed Tween-80. After three hours of feeding, 18:1 FFA appeared where there was none detected in untreated cells (FIG. 9a). […] In a separate experiment designed to distinguish the incorporation of fatty acids from Tween from secondary effects of feedback inhibition, FFA and acylACPs were analyzed in cells fed ^13C-oleoyl-Tween. […] First, the in vivo concentrations of these intermediates were calculated based on the range of values in FIG. 9 and the water content of the cells. […] However, considering that acyl-ACPs are restricted to the plastid, the volume of which in developing embryos was determined to be 10% of the cell (Mansfield and Briarty 1992, Can J Bot, 70, 151-164), the estimate increased to 5-10 μM. […] Thioesterase activity was measured using the same conditions as the ACCase assay. […]

ACCase = ACCase enzyme assay on crude cell extracts; type: biochemical, Brassica napus
Description: All chemicals were obtained from Sigma and radioisotopes from American Radiolabeled Chemicals. ACCase activity was measured as the acetyl-CoA dependent incorporation of ^14C—NaHC03 into acid and stable products. Crude cell extracts were prepared by grinding fresh cells in 3 volumes (w/v) of 50 mM Tris-Cl, pH 7.5, 100 mM KCl, 5 mM MgCl2, 1 mM DTT, 0.1% TritonX-100, 10% glycerol, and plant protease inhibitor cocktail (Sigma). Homogenate was gently mixed on ice for 10 min and then centrifuged for 5 min at 3000 g. Desalting of extracts was done with PD-10 columns (GE Life Sciences). […] Reactions were initiated by the addition of 5 μlL cell extract and were stopped by the addition of 15 μL 12 N HCL. The contents were dried completely at 55° C. and the solids were resuspended in 30 μL water and counted by liquid scintillation spectroscopy. Minus acetyl-CoA controls were always included. Assays went for 30 min, except when measuring the effects of metabolites (10 min). Metabolites were added to the reaction immediately after cell extract to preserve labile thioester bonds. FFA stock solutions were made in ethanol and acyl-CoAs were suspended in water.

## Tween-80
B. napus cells
  change in amount of 18:1-ACP and 18:1-CoA: double in amount
ACCase; crude extracts of cells fed 10 mM Tween-80 for three hours, mean of four repeats ± SD
  ACCase activity: 1.73 ± 0.10^a nmol min^−1 mg^−1
ACCase; included in assay of crude cell extract, FFA up to 10 μM
  effect on ACCase activity: no effect
